#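 In this assay, cells in 96-well plates receive the compound at five concentrations for 48 hours. Endpoints are linearly interpolated between the surrounding concentrations. Definition used: TGI = concentration required for complete inhibition of growth.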
# Legend:
# Assay in all cases: inhibition of tumour cell growth, NCI panel, 48 h
# SNB-78 CNS = test system: SNB-78 CNS
# OVCAR-3 ovarian = test system: OVCAR-3 ovarian
# KM20L2 colon = test system: KM20L2 colon
# DLD-1 colon = test system: DLD-1 colon
# HT29 colon = test system: HT29 colon
# LXFL 529 NSCLC = test system: LXFL 529 NSCLC
SMILES,TGI (SNB-78 CNS) [µM],TGI (OVCAR-3 ovarian) [µM],TGI (KM20L2 colon) [µM],TGI (DLD-1 colon) [µM],TGI (HT29 colon) [µM],TGI (LXFL 529 NSCLC) [µM]
C[N+]1(C)C/C(=C\c2ccccc2)C(=O)/C(=C/c2ccccc2)C1,> 100,> 100,> 100,> 100,> 100,> 100
Cc1cc(NS(=O)(=O)c2ccc(NC(=O)c3ccc(Cl)c4c(Nc5ccc(S(=O)(=O)N=C(N)N)cc5)c5ccccc5nc34)cc2)no1,> 100,83.7,> 100,> 100,> 100,> 100
CN1CC[C@]2(C)c3cc(O)ccc3CC3CCCC1C32C (stereo partly specified),> 100,> 100,> 100,> 100,> 100,> 100
COc1cc(C(O)C(=O)c2nc3ccc([N+](=O)[O-])cc3[nH]c2=O)ccc1O (stereo unspecified),> 100,> 100,> 100,> 100,> 100,> 100
O=C1C2C=CC(C2)C(c2ccc(O)cc2)N1O (stereo unspecified),> 100,> 100,> 100,> 100,> 100,> 100
CC(C)(CN1CCCCC1)C(=O)/C=C/c1ccc(Cl)cc1,11.8,11.9,7.48,22.9,11.7,9.75
